Assay results: patent US9795607B2, “Substituted pyrrolopyrimidine compounds, compositions thereof, and methods of treatment therewith” (Signal Pharmaceutical, LLC, priority 2013, dated 2017)

tested on: Triple negative breast cancer cell line CAL51; test: Cell Titer Glo proliferation assay, CAL51; type: cell-based; conditions: Homo sapiens, CAL-51; CAL51 cell proliferation (Table 1); read-out: Act. Level
Procedure, shortened: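 CAL51 cells grown in DMEM or RPMI1640 with 10% FBS and 2 mM L-glutamine, cultured overnight, then exposed to serially diluted compound (0.2% DMSO final) for 72 h. Viability read by Cell Titer Glo luminescence.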

IC50 [nM]	SMILES
100 to 400	COc1nc(Nc2ccc(C(=O)N(C)C)cc2C)nc2[nH]cc(-c3ccc4nc(C)n(C)c4c3)c12 [Example 407, 4-(5-(1,2-dimethyl-1H-benzo[d]imidazol-6-yl)-4-methoxy-7H-pyrrolo[2,3-d]pyrimidin-2-ylamino)-N,N,3-trimethylbenzamide]
< 100	Cc1cc(C(=O)N(C)C)ccc1Nc1nc(OC(C)C)c2c(-c3ccnc(F)c3)c[nH]c2n1 [Example 402, 4-(5-(2-fluoropyridin-4-yl)-4-isopropoxy-7H-pyrrolo[2,3-d]pyrimidin-2-ylamino)-N,N,3-trimethylbenzamide]
< 100	CNC(=O)c1ccc(Nc2nc(OC3CCC(C)(O)CC3)c3c(-c4ccc5nc(C)oc5c4)c[nH]c3n2)c(Cl)c1 (stereo not drawn) [Example 429, 3-chloro-4-(4-((1s,4s)-4-hydroxy-4-methylcyclohexyloxy)-5-(2-methylbenzo[d]oxazol-6-yl)-7H-pyrrolo[2,3-d]pyrimidin-2-ylamino)-N-methylbenzamide]
< 100	CNC(=O)c1ccc(Nc2nc(OC)c3c(-c4ccc5nc(C)oc5c4)c[nH]c3n2)c(Cl)c1 [Example 427, 3-chloro-4-(4-methoxy-5-(2-methylbenzo[d]oxazol-6-yl)-7H-pyrrolo[2,3-d]pyrimidin-2-ylamino)-N-methylbenzamide]
< 100	COc1nc(Nc2ccc(C(=O)N(C)C)cc2C)nc2[nH]cc(-c3ccc4c(C)noc4c3)c12 [Example 400, 4-(4-methoxy-5-(3-methylbenzo[d]isoxazol-6-yl)-7H-pyrrolo[2,3-d]pyrimidin-2-ylamino)-N,N,3-trimethylbenzamide]
1000 to 10000	COc1cc(C2CCOCC2)ncc1Nc1nc(OC)c2c(-c3ccnc(F)c3)c[nH]c2n1 [Example 416, 5-(2-fluoropyridin-4-yl)-4-methoxy-N-(4-methoxy-6-(tetrahydro-2H-pyran-4-yl)pyridin-3-yl)-7H-pyrrolo[2,3-d]pyrimidin-2-amine]
1000 to 10000	COc1nc(Nc2ccc(C(=O)N(C)C)cc2C)nc2[nH]cc(-c3ccc(S(C)(=O)=O)cc3)c12 [Example 411, 4-(4-methoxy-5-(4-(methylsulfonyl)phenyl)-7H-pyrrolo[2,3-d]pyrimidin-2-ylamino)-N,N,3-trimethylbenzamide]
100 to 400	COc1cc(C(=O)NC2COC2)ccc1Nc1nc(OC)c2c(-c3cc(C)nc(F)c3)c[nH]c2n1 [Example 424, 4-(5-(2-fluoro-6-methylpyridin-4-yl)-4-methoxy-7H-pyrrolo[2,3-d]pyrimidin-2-ylamino)-3-methoxy-N-(oxetan-3-yl)benzamide]
100 to 400	COc1nc(Nc2ccc(C(=O)N(C)C3COC3)cc2C)nc2[nH]cc(-c3ccncc3)c12 [Example 406, 4-(4-methoxy-5-(pyridin-4-yl)-7H-pyrrolo[2,3-d]pyrimidin-2-ylamino)-N,3-dimethyl-N-(oxetan-3-yl)benzamide]
< 100	COc1nc(Nc2ccc(C(=O)N(C)C)cc2C)nc2[nH]cc(-c3cc(C)nc(F)c3)c12 [Example 420, 4-(5-(2-fluoro-6-methylpyridin-4-yl)-4-methoxy-7H-pyrrolo[2,3-d]pyrimidin-2-ylamino)-N,N,3-trimethylbenzamide]

same assay, conditions: Homo sapiens, CAL-51; CAL51 cell proliferation, Cell Titer Glo; read-out: Act. Level

IC50 [nM]	SMILES
< 100	CNC(=O)c1ccc(Nc2nc(OC3CCC(C)(O)CC3)c3c(-c4ccc5nc(C)oc5c4)c[nH]c3n2)c(OC)c1 (stereo not drawn) [Example 205, 4-(4-((1r,4r)-4-hydroxy-4-methylcyclohexyloxy)-5-(2-methylbenzo[d]oxazol-6-yl)-7H-pyrrolo[2,3-d]pyrimidin-2-ylamino)-3-methoxy-N-methylbenzamide]
< 100	COc1cc(C(=O)NC2COC2)ccc1Nc1nc(OC2CCOCC2)c2c(-c3ccc4nc(C)oc4c3)c[nH]c2n1 [Example 368, 3-methoxy-4-(5-(2-methylbenzo[d]oxazol-6-yl)-4-(tetrahydro-2H-pyran-4-yloxy)-7H-pyrrolo[2,3-d]pyrimidin-2-ylamino)-N-(oxetan-3-yl)benzamide]
< 100	COc1nc(Nc2ccc(C(=O)N(C)C)cc2C)nc2[nH]cc(-c3ccc(-c4ncc[nH]4)cc3)c12 [Example 397, 4-(5-(4-(1H-imidazol-2-yl)phenyl)-4-methoxy-7H-pyrrolo[2,3-d]pyrimidin-2-ylamino)-N,N,3-trimethylbenzamide]
100 to 400	COc1nc(Nc2cn(C)nc2C)nc2[nH]cc(-c3ccncc3)c12 [Example 393, N-(1,3-dimethyl-1H-pyrazol-4-yl)-4-methoxy-5-(pyridin-4-yl)-7H-pyrrolo[2,3-d]pyrimidin-2-amine]
100 to 400	COc1cc(C(=O)NC2COC2)ccc1Nc1nc(OC)c2c(-c3ccc4c(C)noc4c3)c[nH]c2n1 [Example 380, 3-methoxy-4-(4-methoxy-5-(3-methylbenzo[d]isoxazol-6-yl)-7H-pyrrolo[2,3-d]pyrimidin-2-ylamino)-N-(oxetan-3-yl)benzamide]
< 100	Cc1nc2ccc(-c3c[nH]c4nc(Nc5cnn(CC(C)(C)O)c5Cl)nc(OC5CCCC5)c34)cc2o1 [Example 371, 1-(5-chloro-4-(4-(cyclopentyloxy)-5-(2-methylbenzo[d]oxazol-6-yl)-7H-pyrrolo[2,3-d]pyrimidin-2-ylamino)-1H-pyrazol-1-yl)-2-methylpropan-2-ol]
100 to 400	COc1cc(C(=O)N2C[C@@H]2CO)ccc1Nc1nc(OC2CCCC2)c2c(-c3ccc4nc(C)oc4c3)c[nH]c2n1 [Example 346, (R)-(4-(4-(cyclopentyloxy)-5-(2-methylbenzo[d]oxazol-6-yl)-7H-pyrrolo[2,3-d]pyrimidin-2-ylamino)-3-methoxyphenyl)(2-(hydroxymethyl)aziridin-1-yl)methanone]
100 to 400	CNC(=O)c1ccc(-c2c[nH]c3nc(Nc4ccc(C(=O)NC5COC5)cc4OC)nc(OC4CC4)c23)cc1 [Example 344, 4-(4-cyclopropoxy-5-(4-(methylcarbamoyl)phenyl)-7H-pyrrolo[2,3-d]pyrimidin-2-ylamino)-3-methoxy-N-(oxetan-3-yl)benzamide]
100 to 400	COc1cc(C(=O)NC2COC2)ccc1Nc1nc(OC(C)C)c2c(-c3ccc4nc(C)oc4c3)c[nH]c2n1 [Example 362, 4-(4-isopropoxy-5-(2-methylbenzo[d]oxazol-6-yl)-7H-pyrrolo[2,3-d]pyrimidin-2-ylamino)-3-methoxy-N-(oxetan-3-yl)benzamide]
< 100	CNC(=O)c1ccc(Nc2nc(OC3CCCC3)c3c(-c4cccc(O)c4)c[nH]c3n2)c(OC)c1 [Example 323, 4-(4-(cyclopentyloxy)-5-(3-hydroxyphenyl)-7H-pyrrolo[2,3-d]pyrimidin-2-ylamino)-3-methoxy-N-methylbenzamide]
1000 to 10000	COc1cc(C(=O)NC2COC2)ccc1Nc1nc(OC)c2c(-c3cn(C)nc3C)c[nH]c2n1 [Example 387, 4-(5-(1,3-dimethyl-1H-pyrazol-4-yl)-4-methoxy-7H-pyrrolo[2,3-d]pyrimidin-2-ylamino)-3-methoxy-N-(oxetan-3-yl)benzamide]
1000 to 10000	CNC(=O)c1ccc(Nc2nc(OC3CCCC3)c3c(-c4ccc(OC)cc4OC)c[nH]c3n2)c(OC)c1 [Example 320, 4-(4-(cyclopentyloxy)-5-(2,4-dimethoxyphenyl)-7H-pyrrolo[2,3-d]pyrimidin-2-ylamino)-3-methoxy-N-methylbenzamide]
100 to 400	COc1cc(C(=O)NC2COC2)ccc1Nc1nc(OC2CC2)c2c(-c3ccc4nc(C)oc4c3)c[nH]c2n1 [Example 369, 4-(4-cyclopropoxy-5-(2-methylbenzo[d]oxazol-6-yl)-7H-pyrrolo[2,3-d]pyrimidin-2-ylamino)-3-methoxy-N-(oxetan-3-yl)benzamide]

SMILES	IC50 [nM]
CNC(=O)c1ccc(-c2c[nH]c3nc(Nc4ccc(C(=O)NCCO)cc4OC)nc(OC4CCC4)c23)cc1 [Example 331, 4-(4-cyclobutoxy-5-(4-(methylcarbamoyl)phenyl)-7H-pyrrolo[2,3-d]pyrimidin-2-ylamino)-N-(2-hydroxyethyl)-3-methoxybenzamide]	100 to 400
CNC(=O)c1ccc(-c2c[nH]c3nc(Nc4ccc(C(=O)NC5COC5)cc4Cl)nc(OC4CCC4)c23)cc1 [Example 333, 3-chloro-4-(4-cyclobutoxy-5-(4-(methylcarbamoyl)phenyl)-7H-pyrrolo[2,3-d]pyrimidin-2-ylamino)-N-(oxetan-3-yl)benzamide]	< 100
CNC(=O)c1ccc(-c2c[nH]c3nc(Nc4cn(C)nc4C)nc(OC4CCC4)c23)cc1 [Example 340, 4-(4-cyclobutoxy-2-(1,3-dimethyl-1H-pyrazol-4-ylamino)-7H-pyrrolo[2,3-d]pyrimidin-5-yl)-N-methylbenzamide]	< 100
COc1cc(C(=O)NC2COC2)ccc1Nc1nc(OC2CCC2)c2c(-c3ccc(-c4ncc[nH]4)cc3)c[nH]c2n1 [Example 360, 4-(5-(4-(1H-imidazol-2-yl)phenyl)-4-cyclobutoxy-7H-pyrrolo[2,3-d]pyrimidin-2-ylamino)-3-methoxy-N-(oxetan-3-yl)benzamide]	< 100
COc1cc(C(=O)NC2COC2)ccc1Nc1nc(OC(C)(C)C)c2c(-c3ccc4nc(C)oc4c3)c[nH]c2n1 [Example 370, 4-(4-tert-butoxy-5-(2-methylbenzo[d]oxazol-6-yl)-7H-pyrrolo[2,3-d]pyrimidin-2-ylamino)-3-methoxy-N-(oxetan-3-yl)benzamide]	< 100
COc1cc(C(=O)NC2COC2)ccc1Nc1nc(OC2(C)CCC2)c2c(-c3ccc4nc(C)oc4c3)c[nH]c2n1 [Example 379, 3-methoxy-4-(5-(2-methylbenzo[d]oxazol-6-yl)-4-(1-methylcyclobutoxy)-7H-pyrrolo[2,3-d]pyrimidin-2-ylamino)-N-(oxetan-3-yl)benzamide]	< 100
CNC(=O)c1ccc(-c2c[nH]c3nc(Nc4ccc(C(=O)NC5COC5)cc4OC)nc(OC4CCC4)c23)cc1F [Example 353, 4-(4-cyclobutoxy-2-(2-methoxy-4-(oxetan-3-ylcartbamoyl)phenylamino)-7H-pyrrolo[2,3-d]pyrimidin-5-yl)-2-fluoro-N-methylbenzamide]	1000 to 10000
